Data as given in the supplement of paper PMC10307832.

Experiments:
Assay in all cases: relative viability (nuclei count vs DMSO), 5 days (fraction); higher = more cells survive
[1] = system: ChaGo-K-1
How it was run: (§1)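 Lung cancer cell lines, seeded in 1536-well plates, were treated the following day by pin tool with a single drug or with five library-drug doses (not always all listed) in √10 steps on top of a fixed anchor-drug dose. Cells were fixed and nuclei stained in one step after 5 days, and nuclei were counted. Relative viability is the nuclei count for treated wells divided by that for vehicle wells, reported as medians of duplicate plates.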

[2] = system: RERF-LC-KJ
How it was run: as §1

[3] = system: NCI-H2087
How it was run: as §1

[4] = system: BEN
How it was run: as §1

[5] = system: NCI-H1792
How it was run: as §1

[6] = system: LU99A
How it was run: as §1

[7] = system: EMC-BAC-2
How it was run: as §1

[8] = system: EKVX
How it was run: as §1

[9] = system: LK-2
How it was run: as §1

[10] = system: NCI-H1734
How it was run: as §1

[11] = system: LOU-NH91
How it was run: as §1

[12] = system: NCI-H358
How it was run: as §1

[13] = system: HCC-78
How it was run: as §1

[14] = system: HCC-827
How it was run: as §1

[15] = system: NCI-H1650
How it was run: as §1

[16] = system: NCI-H727
How it was run: as §1

[17] = system: NCI-H2126
How it was run: as §1

[18] = system: COR-L 105
How it was run: as §1

[19] = system: NCI-H1944
How it was run: as §1

[20] = system: SW 1573
How it was run: as §1

[21] = system: EPLC-272H
How it was run: as §1

[22] = system: SK-MES-1
How it was run: as §1

[23] = system: LCLC-97TM1
How it was run: as §1

## Cc1cnc(-c2cnc(NCCNc3ccc(C#N)cn3)nc2-c2ccc(Cl)cc2Cl)[nH]1 + CC(=O)Nc1cccc(-n2c(=O)n(C3CC3)c(=O)c3c(Nc4ccc(I)cc4F)n(C)c(=O)c(C)c32)c1 [Trametinib] (partner 0.02 µM)
[1]; first compound 0.08 µM
  relative viability: 0.891
[1]; first compound 0.253 µM
  relative viability: 0.761
[1]; first compound 0.8 µM
  relative viability: 0.844
[1]; first compound 2.53 µM
  relative viability: 0.824
[2]; first compound 0.08 µM
  relative viability: 0.951
[2]; first compound 0.253 µM
  relative viability: 0.847
[2]; first compound 0.8 µM
  relative viability: 0.832
[2]; first compound 2.53 µM
  relative viability: 0.771
[3]; first compound 0.08 µM
  relative viability: 0.203
[3]; first compound 0.8 µM
  relative viability: 0.214
[3]; first compound 2.53 µM
  relative viability: 0.177
[4]; first compound 0.08 µM
  relative viability: 1.25
[4]; first compound 0.253 µM
  relative viability: 0.879
[4]; first compound 0.8 µM
  relative viability: 1.04
[4]; first compound 2.53 µM
  relative viability: 1.42
[5]; first compound 0.08 µM
  relative viability: 0.525
[5]; first compound 0.253 µM
  relative viability: 0.437
[5]; first compound 0.8 µM
  relative viability: 0.472
[5]; first compound 2.53 µM
  relative viability: 0.349
[6]; first compound 0.08 µM
  relative viability: 0.549
[6]; first compound 0.253 µM
  relative viability: 0.556
[6]; first compound 0.8 µM
  relative viability: 0.53
[6]; first compound 2.53 µM
  relative viability: 0.534
[7]; first compound 0.08 µM
  relative viability: 1.06
[7]; first compound 0.253 µM
  relative viability: 0.976
[7]; first compound 0.8 µM
  relative viability: 0.853
[7]; first compound 2.53 µM
  relative viability: 0.887
[8]; first compound 0.08 µM
  relative viability: 0.391
[8]; first compound 0.253 µM
  relative viability: 0.328
[8]; first compound 0.8 µM
  relative viability: 0.256
[8]; first compound 2.53 µM
  relative viability: 0.358
[9]; first compound 0.08 µM
  relative viability: 0.834
[9]; first compound 0.253 µM
  relative viability: 0.833
[9]; first compound 0.8 µM
  relative viability: 0.841
[9]; first compound 2.53 µM
  relative viability: 0.955
[10]; first compound 0.08 µM
  relative viability: 0.801
[10]; first compound 0.253 µM
  relative viability: 0.641
[10]; first compound 0.8 µM
  relative viability: 0.775
[10]; first compound 2.53 µM
  relative viability: 0.72
[11]; first compound 0.08 µM
  relative viability: 0.799
[11]; first compound 0.253 µM
  relative viability: 0.84
[11]; first compound 0.8 µM
  relative viability: 0.843
[11]; first compound 2.53 µM
  relative viability: 0.856
[12]; first compound 0.08 µM
  relative viability: 0.147
[12]; first compound 0.253 µM
  relative viability: 0.143
[12]; first compound 0.8 µM
  relative viability: 0.136
[12]; first compound 2.53 µM
  relative viability: 0.13
[13]; first compound 0.08 µM
  relative viability: 0.876
[13]; first compound 0.253 µM
  relative viability: 0.669
[13]; first compound 0.8 µM
  relative viability: 0.621
[13]; first compound 2.53 µM
  relative viability: 0.828
[14]; first compound 0.08 µM
  relative viability: 0.597
[14]; first compound 0.253 µM
  relative viability: 0.473
[14]; first compound 0.8 µM
  relative viability: 0.522
[14]; first compound 2.53 µM
  relative viability: 0.434
[15]; first compound 0.08 µM
  relative viability: 0.659
[15]; first compound 0.253 µM
  relative viability: 0.47
[15]; first compound 0.8 µM
  relative viability: 0.365
[15]; first compound 2.53 µM
  relative viability: 0.469
[16]; first compound 0.08 µM
  relative viability: 0.384
[16]; first compound 0.253 µM
  relative viability: 0.375
[16]; first compound 0.8 µM
  relative viability: 0.404
[16]; first compound 2.53 µM
  relative viability: 0.393
[17]; first compound 0.08 µM
  relative viability: 0.58
[17]; first compound 0.253 µM
  relative viability: 0.546
[17]; first compound 0.8 µM
  relative viability: 0.564
[17]; first compound 2.53 µM
  relative viability: 0.546
[18]; first compound 0.08 µM
  relative viability: 0.481
[18]; first compound 0.253 µM
  relative viability: 0.383
[18]; first compound 0.8 µM
  relative viability: 0.324
[18]; first compound 2.53 µM
  relative viability: 0.415
[19]; first compound 0.08 µM
  relative viability: 0.423
[19]; first compound 0.8 µM
  relative viability: 0.463
[19]; first compound 2.53 µM
  relative viability: 0.371
[20]; first compound 0.08 µM
  relative viability: 0.718
[20]; first compound 0.253 µM
  relative viability: 0.537
[20]; first compound 0.8 µM
  relative viability: 0.575
[20]; first compound 2.53 µM
  relative viability: 0.337
[21]; first compound 0.08 µM
  relative viability: 0.26
[21]; first compound 0.253 µM
  relative viability: 0.298
[21]; first compound 0.8 µM
  relative viability: 0.314
[21]; first compound 2.53 µM
  relative viability: 0.296
[22]; first compound 0.08 µM
  relative viability: 0.548
[22]; first compound 0.253 µM
  relative viability: 0.54
[22]; first compound 0.8 µM
  relative viability: 0.676
[22]; first compound 2.53 µM
  relative viability: 0.619
[23]; first compound 0.08 µM
  relative viability: 0.201
[23]; first compound 0.253 µM
  relative viability: 0.193
[23]; first compound 0.8 µM
  relative viability: 0.18
[23]; first compound 2.53 µM
  relative viability: 0.214
